According to patent US20120029190A1, “COMPOUNDS FOR TREATING DISORDERS MEDIATED BY METABOTROPIC GLUTAMATE RECEPTOR 5, AND METHODS OF USE THEREOF” (priority 2009, published 2012):

molecular target: T1, human recombinant mGluR5 receptor (Homo sapiens, UniProt P41594); experiment: mGluR5 in vitro functional assay (aequorin cell line, inhibition of glutamate EC80 response); type: cell-based; details: Table 1; aequorin cell line expressing human mGluR5, reference agonist glutamate at EC80; obtained in duplicate; read-out: IC50
T1 construct: expressed in transfected cells; expression induced with doxycycline
T1 sequence (P41594 21-1212): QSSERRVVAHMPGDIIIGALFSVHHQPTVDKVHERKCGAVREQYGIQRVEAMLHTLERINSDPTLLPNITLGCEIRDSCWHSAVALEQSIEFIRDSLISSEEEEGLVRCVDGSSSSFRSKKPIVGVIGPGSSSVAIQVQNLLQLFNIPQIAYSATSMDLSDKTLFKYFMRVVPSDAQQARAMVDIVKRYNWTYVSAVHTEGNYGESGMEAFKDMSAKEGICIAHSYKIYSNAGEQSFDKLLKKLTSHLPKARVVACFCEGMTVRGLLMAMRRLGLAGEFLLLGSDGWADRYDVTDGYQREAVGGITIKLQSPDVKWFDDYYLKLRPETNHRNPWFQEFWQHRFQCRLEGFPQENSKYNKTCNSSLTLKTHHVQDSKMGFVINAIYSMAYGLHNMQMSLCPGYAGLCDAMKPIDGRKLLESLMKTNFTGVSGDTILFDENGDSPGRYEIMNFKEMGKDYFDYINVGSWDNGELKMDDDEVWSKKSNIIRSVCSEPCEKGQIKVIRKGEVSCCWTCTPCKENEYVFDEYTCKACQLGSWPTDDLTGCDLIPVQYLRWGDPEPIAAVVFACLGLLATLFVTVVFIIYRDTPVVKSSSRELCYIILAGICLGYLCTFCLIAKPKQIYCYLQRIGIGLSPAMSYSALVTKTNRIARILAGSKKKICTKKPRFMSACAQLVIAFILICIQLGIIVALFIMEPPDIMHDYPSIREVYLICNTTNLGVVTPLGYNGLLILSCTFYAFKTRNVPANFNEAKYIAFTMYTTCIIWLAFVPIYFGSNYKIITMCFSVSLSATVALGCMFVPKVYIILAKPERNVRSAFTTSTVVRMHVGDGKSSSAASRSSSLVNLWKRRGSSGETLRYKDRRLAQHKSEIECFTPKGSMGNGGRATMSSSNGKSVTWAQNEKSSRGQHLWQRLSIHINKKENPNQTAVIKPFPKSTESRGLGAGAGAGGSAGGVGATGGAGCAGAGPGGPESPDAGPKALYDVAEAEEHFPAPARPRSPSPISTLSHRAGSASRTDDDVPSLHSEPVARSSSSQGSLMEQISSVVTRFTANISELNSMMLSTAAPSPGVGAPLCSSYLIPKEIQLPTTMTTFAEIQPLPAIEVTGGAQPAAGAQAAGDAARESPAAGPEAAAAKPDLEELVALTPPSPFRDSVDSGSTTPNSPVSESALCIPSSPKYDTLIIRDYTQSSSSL
Procedure: B. mGluR5 In Vitro Functional Assay
The functional assay utilized an aequorin cell line expressing human recombinant mGluR5 receptor, an inducible cell line that expresses the human receptor under the control of a promoter induced by doxycycline.
mGluR5 cells in mid-log phase, grown 18 hours prior to the test in antibiotic-free media supplemented with doxycycline (600 ng/mL), were detached by gentle flushing with PBS-EDTA ([…]). The cells were recovered by centrifugation and resuspended in assay buffer (HBSS, […], 3 ug/mL glutamate-pyruvate transaminase, […] MEM sodium pyruvate, 0.1% BSA protease-free). Cells were incubated at room temperature for at least 4 hours with Coelenterazine h (Molecular Probes). The cell suspension (60 uL) containing the test compound was mixed with a solution of reference agonist (30 uL) at its EC80, following an incubation of 3 min. after the first injection. The resulting emission of light was recorded using a Hamamatsu Functional Drug Screening System 6000 (FDSS 6000). To standardize the emission of recorded light (determination of the “100% signal’) across plates and across different experiments, some of the wells contained 100 uM digitonin or a saturating concentration (20 mM) of ATP. Plates also contained the reference agonist (glutamate) at a concentration equivalent to the EC80 obtained during assay validation. Percentages of inhibition were calculated on the basis of the activation induced by the reference agonist at a concentration equal to the EC80. Dose-response data were analyzed with XLFit (IDBS) software using nonlinear regression applied to a sigmoidal dose-response model.

IC50 | SMILES
< 1 µM | N#Cc1cccnc1N1Cc2nc(-c3ccccn3)oc2C1 [Compound 85, 2-(2-(Pyridin-2-yl)-4H-pyrrolo[3,4-d]oxazol-5(6H)-yl)pyridine-3-carbonitrile]
< 10 µM | Cc1ccc(-c2nc3c(o2)CN(c2cccc(C#N)c2)CC3)nc1 [Compound 74, 3-(2-(5-Methylpyridin-2-yl)-6,7-dihydrooxazolo[5,4-c]pyridin-5(4H)-yl)benzonitrile]
< 1 µM | N#Cc1cc(F)cc(N2CCCc3nc(-c4ccccn4)oc3C2)c1 [Compound 90, 3-Fluoro-5-(2-(pyridin-2-yl)-7,8-dihydro-4H-oxazolo[5,4-c]azepin-5(6H)-yl)benzonitrile]
> 10 µM | N#Cc1cccc(-c2nc3c(o2)CN(c2ccccn2)C3)c1 [Compound 86, 3-(5-(Pyridin-2-yl)-5,6-dihydro-4H-pyrrolo[3,4-d]oxazol-2-yl)benzonitrile]
< 10 µM | N#Cc1cccc(N2CCc3nc(-c4ccncc4)oc3C2)c1 [Compound 75, 3-(2-(Pyridin-4-yl)-6,7-dihydrooxazolo[5,4-c]pyridin-5(4H)-yl)benzonitrile]
< 10 µM | N#Cc1cccc(C(=O)N2CCc3nc(-c4ccccn4)oc3C2)c1 [Compound 12, 3-(2-(Pyridin-2-yl)-4,5,6,7-tetrahydrooxazolo[5,4-c]pyridine-5-carbonyl)benzonitrile]
< 10 µM | N#Cc1ccnc(N2CCc3nc(-c4ccccn4)oc3C2)c1 [Compound 7, 2-(2-(Pyridin-2-yl)-6,7-dihydrooxazolo[5,4-c]pyridin-5(4H)-yl)isonicotinonitrile]
> 10 µM | N#Cc1cccnc1N1CCc2oc(-c3ccc(F)cc3)nc2C1 [Compound 46, 2-(2-(4-Fluorophenyl)-6,7-dihydrooxazolo[4,5-c]pyridin-5(4H)-yl)nicotinonitrile]
< 10 µM | N#Cc1cc(N2CCc3oc(-c4ccccn4)nc3C2)ccc1F [Compound 57, 2-Fluoro-5-(2-(pyridin-2-yl)-6,7-dihydrooxazolo[4,5-c]pyridin-5(4H)-yl)benzonitrile]
< 10 µM | Clc1cccc(-c2nc3c(o2)CCN(Cc2ccccn2)C3)c1 [Compound 50, 2-(3-Chlorophenyl)-5-(pyridin-2-ylmethyl)-4,5,6,7-tetrahydrooxazolo[4,5-c]pyridine]
< 1 µM | N#Cc1cccc(N2CCc3oc(-c4ccccn4)nc3C2)n1 [Compound 29, 6-(2-(Pyridin-2-yl)-6,7-dihydrooxazolo[4,5-c]pyridin-5(4H)-yl)picolinonitrile]
< 1 µM | N#Cc1cccc(N2CCCc3oc(-c4ccccn4)nc3C2)c1 [Compound 99, 3-(2-(Pyridin-2-yl)-7,8-dihydro-4H-oxazolo[4,5-c]azepin-5(6H)-yl)benzonitrile]
< 1 µM | N#Cc1cccc(N2CCCc3nc(-c4ccc(F)cn4)oc3C2)c1 [Compound 97, 3-(2-(5-Fluoropyridin-2-yl)-7,8-dihydro-4H-oxazolo[5,4-c]azepin-5(6H)-yl)benzonitrile]
< 1 µM | N#Cc1cccnc1N1CCc2oc(-c3cccc(Cl)c3)nc2C1 [Compound 39, 2-(2-(3-Chlorophenyl)-6,7-dihydrooxazolo[4,5-c]pyridin-5(4H)-yl)nicotinonitrile]
< 10 µM | N#Cc1cc(N2CCc3nc(-c4ccccn4)oc3C2)ccn1 [Compound 9, 4-(2-(Pyridin-2-yl)-6,7-dihydrooxazolo[5,4-c]pyridin-5(4H)-yl)picolinonitrile]
< 10 µM | N#Cc1cc(F)cc(N2CCc3oc(-c4ncco4)nc3C2)c1 [Compound 80, 3-Fluoro-5-(2-(oxazol-2-yl)-6,7-dihydrooxazolo[4,5-c]pyridin-5(4H)-yl)benzonitrile]
< 1 µM | N#Cc1nccnc1N1CCc2oc(-c3cccc(Cl)c3)nc2C1 [Compound 53, 3-(2-(3-Chlorophenyl)-6,7-dihydrooxazolo[4,5-c]pyridin-5(4H)-yl)pyrazine-2-carbonitrile]
< 10 µM | N#Cc1cncc(N2CCc3nc(-c4ccccn4)oc3C2)c1 [Compound 8, 5-(2-(Pyridin-2-yl)-6,7-dihydrooxazolo[5,4-c]pyridin-5(4H)-yl)nicotinonitrile]
< 10 µM | Cc1ccnc(-c2nc3c(o2)CN(c2cccc(C#N)c2)CC3)c1 [Compound 76, 3-(2-(4-Methylpyridin-2-yl)-6,7-dihydrooxazolo[5,4-c]pyridin-5(4H)-yl)benzonitrile]
< 1 µM | Cc1cccc(-c2nc3c(o2)CN(c2ncccc2C#N)CC3)c1 [Compound 59, 2-(2-m-Tolyl-6,7-dihydrooxazolo[5,4-c]pyridin-5(4H)-yl)nicotinonitrile]
< 10 µM | FC(F)(F)c1cccc(N2CCCc3nc(-c4ccccn4)oc3C2)c1 [Compound 95, 2-(Pyridin-2-yl)-5-(3-(trifluoromethyl)phenyl)-5,6,7,8-tetrahydro-4H-oxazolo[5,4-c]azepine]
> 10 µM | N#Cc1cccc(-c2nc3c(o2)CCN(c2ccccn2)C3)c1 [Compound 62, 3-(5-(Pyridin-2-yl)-4,5,6,7-tetrahydrooxazolo[4,5-c]pyridin-2-yl)benzonitrile]

same assay, conditions: Table 2; aequorin cell line expressing human mGluR5, reference agonist glutamate at EC80; obtained in duplicate; read-out: IC50

IC50 | SMILES
< 1 µM | c1ccc(-c2nc3c(o2)CCN(c2cccc4[nH]ccc24)C3)nc1 [Compound 194, 5-(1H-Indol-4-yl)-2-(pyridin-2-yl)-4,5,6,7-tetrahydrooxazolo[4,5-c]pyridine]
< 1 µM | N#Cc1cc(F)cc(N2CCCc3oc(-c4ncccn4)nc3C2)c1 [Compound 203, 3-Fluoro-5-(2-(pyrimidin-2-yl)-7,8-dihydro-4H-oxazolo[4,5-c]azepin-5(6H)-yl)benzonitrile]
< 1 µM | Fc1cc(Cl)cc(N2CCCc3oc(-c4ccccn4)nc3C2)c1 [Compound 199, 5-(3-Chloro-5-fluorophenyl)-2-(pyridin-2-yl)-5,6,7,8-tetrahydro-4H-oxazolo[4,5-c]azepine]
< 1 µM | COc1cc(C#N)cc(N2CCCc3oc(-c4ccccn4)nc3C2)c1 [Compound 213, 3-Methoxy-5-(2-(pyridin-2-yl)-7,8-dihydro-4H-oxazolo[4,5-c]azepin-5(6H)-yl)benzonitrile]
< 1 µM | CC1CCN(c2cc(F)cc(C#N)c2)Cc2nc(-c3ccccn3)oc21 (stereo not drawn) [Compound 215, 3-Fluoro-5-(8-methyl-2-(pyridin-2-yl)-7,8-dihydro-4H-oxazolo[4,5-c]azepin-5(6H)-yl)benzonitrile]
< 1 µM | [2H]c1c(F)c([2H])c(N2CCCc3oc(-c4ccccn4)nc3C2)c([2H])c1C#N [Compound 210, 2,4,6-d3-3-Fluoro-5-(2-(pyridin-2-yl)-7,8-dihydro-4H-oxazolo[4,5-c]azepin-5(6H)-yl)benzonitrile]
< 1 µM | COc1ccccc1N1CCc2oc(-c3ccccn3)nc2C1 [Compound 177, 5-(2-Methoxyphenyl)-2-(pyridin-2-yl)-4,5,6,7-tetrahydrooxazolo[4,5-c]pyridine]
< 1 µM | N#Cc1ccccc1N1CCc2oc(-c3ccccn3)nc2C1 [Compound 180, 2-(2-(Pyridin-2-yl)-6,7-dihydrooxazolo[4,5-c]pyridin-5(4H)-yl)benzonitrile]
< 10 µM | O=C(CN1CCc2oc(-c3cccc(Cl)c3)nc2C1)c1ccc(F)cc1 [Compound 190, 2-(2-(3-Chlorophenyl)-6,7-dihydrooxazolo[4,5-c]pyridin-5(4H)-yl)-1-(4-fluorophenyl)ethanone]
< 1 µM | Fc1ccc(-c2nc3c(o2)CCN(c2cc(F)cc(Cl)c2)C3)nc1 [Compound 159, 5-(3-Chloro-5-fluorophenyl)-2-(5-fluoropyridin-2-yl)-4,5,6,7-tetrahydrooxazolo[4,5-c]pyridine]
< 10 µM | Clc1cccc(N2CCCc3oc(-c4cnccn4)nc3C2)c1 [Compound 140, 5-(3-chlorophenyl)-2-(pyrazin-2-yl)-5,6,7,8-tetrahydro-4H-oxazolo[4,5-c]azepine]
< 10 µM | N#Cc1cccc(N2CCc3nc(C4CCCCC4)oc3C2)c1 [Compound 149, 3-(2-Cyclohexyl-6,7-dihydrooxazolo[5,4-c]pyridin-5(4H)-yl)benzonitrile]
< 1 µM | Clc1ccccc1N1CCCc2oc(-c3ccccn3)nc2C1 [Compound 211, 5-(2-Chlorophenyl)-2-(pyridin-2-yl)-5,6,7,8-tetrahydro-4H-oxazolo[4,5-c]azepine]
> 10 µM | O=C(CN1CCc2oc(-c3ccccn3)nc2C1)c1ccc(F)cc1 [Compound 192, 1-(4-Fluorophenyl)-2-(2-(pyridin-2-yl)-6,7-dihydrooxazolo[4,5-c]pyridin-5(4H)-yl)ethanone]
< 1 µM | Fc1ccc([C@@H]2CCc3oc(-c4ccccn4)nc3C2)c(Cl)c1 (single isomer, unassigned) [Compound 224]
< 1 µM | N#Cc1cc(F)cc(N2CCCc3oc(-c4ccncn4)nc3C2)c1 [Compound 138, 3-fluoro-5-(2-(pyrimidin-4-yl)-7,8-dihydro-4H-oxazolo[4,5-c]azepin-5(6H)-yl)benzonitrile]
< 1 µM | N#Cc1c(F)cccc1N1CCc2oc(-c3ccccn3)nc2C1 [Compound 189, 2-Fluoro-6-(2-(pyridin-2-yl)-6,7-dihydrooxazolo[4,5-c]pyridin-5(4H)-yl)benzonitrile]
